Reference: patent US12325697B2 (Nimbus Clio, Inc., priority 2021, dated 2025)

target: Recombinant human Cbl-b (aa 36-427) (Homo sapiens (Human), UniProt Q13191); experiment: Cbl-b Biochemical Assay (TR-FRET); settings: read-out: TR-FRET hCbl-b IC50
Protocol: Recombinant human Cbl-b (aa 36-427) was expressed in E. coli, purified and biotinylated in vitro. The protein was diluted to 12 nM in freshly prepared assay buffer consisting of 50 mM HEPES, pH 7.0, 100 mM NaCl, 5 mM MgCl2, 0.01% Triton-X 100, 0.01% BSA and 1 mM DTT. Recombinant human Src (aa 254-536)-[…]-Zap-70 (aa 281-297) fusion protein was expressed in E. coli and purified. Protein was diluted in assay buffer to 2-5 nM and supplemented with ATP to 1 mM. Fluorescein-BODIPY labeled UBE[…]([…])-Ub was prepared by conjugating ubiquitin (Ub) labeled at its N-terminus with Fluorescein-BODIPY maleimide (ThermoFisher Catalog no B10250) to E. coli expressed and purified UBE[…]([…]) [see Dou et al Nature Structural and Molecular Biology 8: 982-987, 2013]. Recombinant human UBE2D2([…]) was expressed in E. coli, purified and ubiquitinated and Bodipy labelled in vitro. Protein was diluted to 200 nM in assay buffer without MgCl2 (or Cisbio PPI buffer). Streptavidin-Terbium was added to 2 nM and EDTA to 10 mM, to provide a binding assay mix. Compounds were dissolved in DMSO and diluted to prepare a ten-point dilution series. 100 nl of each compound concentration was dispensed in duplicate in a 384 well black assay plate using acoustic dispensing. Wells for maximum signal controls received 100 nl of DMSO only and wells for minimum signal controls received 100 nl of a reference inhibitor compound at a final assay concentration of […] to produce 100% inhibition. 5 μl of diluted Cbl-b enzyme was added to all wells of the assay plate and incubated at RT for 30-60 min. The enzyme assay was initiated by addition of 5 μl of Src-Zap/ATP mix to all wells, and the plate incubated at RT for 60 min. The enzyme reaction was terminated and the binding reaction was initiated by adding 10 μl of binding assay mix to all wells and incubating the plate at RT for 60 min prior to assay read. Final assay conditions consisted of 6 nM Cbl-b, 1-2.5 nM Src-Zap70, 0.5 mM ATP, 1% (v/v) DMSO (enzyme reaction) and 100 nM UBE2D2([…])-Ub-FL-BODIPY, 5 mM EDTA, 1 nM Streptavidin-Tb (binding reaction). The HTRF assay signal was measured at 520 nm on an Envision plate reader, with reference signal at 485 or 620 nm. Data was normalized using maximum and minimum assay controls: % Inhibition=100-(100*((maximum control)-unknown)/(maximum control-minimum control)). A 4-parameter dose-response equation was used to fit the normalized dose-response data and derive an IC50 for test compounds.

Chain of Recombinant human Cbl-b (aa 36-427) (Q13191 36-427): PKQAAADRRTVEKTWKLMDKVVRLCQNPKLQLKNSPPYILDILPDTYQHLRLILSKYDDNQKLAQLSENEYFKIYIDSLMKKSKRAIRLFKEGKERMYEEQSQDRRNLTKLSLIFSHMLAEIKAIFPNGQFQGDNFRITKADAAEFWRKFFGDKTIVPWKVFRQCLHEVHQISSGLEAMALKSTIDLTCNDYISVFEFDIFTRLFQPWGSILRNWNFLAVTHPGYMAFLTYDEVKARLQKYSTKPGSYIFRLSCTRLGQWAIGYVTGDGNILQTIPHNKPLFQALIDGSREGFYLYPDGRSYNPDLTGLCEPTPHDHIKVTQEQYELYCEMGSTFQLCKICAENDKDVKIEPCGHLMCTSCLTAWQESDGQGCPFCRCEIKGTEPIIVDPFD

SMILES | IC50 [µM]
Cn1cnnc1-c1cnn(C)c1-c1cc(O)nc(N2Cc3c(cc(CN4CCC5(CC5)C4)cc3C(F)(F)F)C2=O)c1 [ABE-1, 6-((5-Azaspiro [2.4]heptan-5-yl)methyl)-2-(6-hydroxy-4-(1-methyl-4-(4-methyl-4H-1,2,4-triazol-3-yl)-1H-pyrazol-5-yl)pyridin-2-yl)-4-(trifluoromethyl)isoindolin-1-one] | 1 to 10
CCNc1cc(-c2ccccc2-c2nncn2C)cc(N2Cc3c(cc(CN4CCC[C@@H](C)C4)cc3C(F)(F)F)C2=O)n1 [AE-2, (R)-2-(6-(Ethylamino)-4-(2-(4-methyl-4H-1,2,4-triazol-3-yl)phenyl)pyridin-2-yl)-6-((3-methylpiperidin-1-yl)methyl)-4-(trifluoromethyl)isoindolin-1-one] | ≤ 0.2
Cn1cnnc1-c1ccc(C(F)(F)F)cc1-c1cccc(N2Cc3c(cccc3C(F)(F)F)C2=O)c1 [AAG-8, 2-(2′-(4-Methyl-4H-1,2,4-triazol-3-yl)-5′-(trifluoromethyl)-[1,1′-biphenyl]-3-yl)-4-(trifluoromethyl)isoindolin-1-one] | 10 to 50
Cn1cnnc1-c1ccccc1-c1cc(N2Cc3c(cccc3C(F)(F)F)C2=O)cc(C(F)(F)F)c1 [Example K-3, 2-(2′-(4-Methyl-4H-1,2,4-triazol-3-yl)-5-(trifluoromethyl)-[1,1′-biphenyl]-3-yl)-4-(trifluoromethyl)isoindolin-1-one] | 1 to 10
CCNc1cc(-c2c(-c3nncn3C)cnn2C)cc(N2Cc3c(cc(CO)cc3C(F)(F)F)C2=O)n1 [ACH-1, 2-(6-(Ethylamino)-4-(1-methyl-4-(4-methyl-4H-1,2,4-triazol-3-yl)-1H-pyrazol-5-yl)pyridin-2-yl)-6-(hydroxymethyl)-4-(trifluoromethyl)isoindolin-1-one] | ≤ 0.2
CCNc1cc(-c2ccc(F)cc2-c2nncn2C)cc(N2Cc3c(cccc3C(F)(F)F)C2=O)n1 [ACM-8, 2-(6-(Ethylamino)-4-(4-fluoro-2-(4-methyl-4H-1,2,4-triazol-3-yl)phenyl)pyridin-2-yl)-4-(trifluoromethyl)isoindolin-1-one] | ≤ 0.2
CCNc1cc(-c2ccccc2-c2nncn2C)cc(N2Cc3c(cc(CN4CCO[C@@H](C)C4)cc3C(F)(F)F)C2=O)n1 [AL-1, (S)-2-(6-(Ethylamino)-4-(2-(4-methyl-4H-1,2,4-triazol-3-yl)phenyl)pyridin-2-yl)-6-((2-methylmorpholino)methyl)-4-(trifluoromethyl)isoindolin-1-one] | ≤ 0.2
Cn1cnnc1-c1ccccc1-c1cccc(N2Cc3c(cc(CN[C@@H]4CCC[C@H]4O)cc3C(F)(F)F)C2=O)c1 [Example W-2, 6-((((1R,2R)-2-Hydroxycyclopentyl)amino)methyl)-2-(2′-(4-methyl-4H-1,2,4-triazol-3-yl)-[1,1′-biphenyl]-3-yl)-4-(trifluoromethyl)isoindolin-1-one] | ≤ 0.2
Cn1cnnc1-c1ccccc1-c1cc(N2Cc3c(cccc3C(F)(F)F)C2=O)nc2[nH]ccc12 [Example L-5, 2-(4-(2-(4-Methyl-4H-1,2,4-triazol-3-yl)phenyl)-1H-pyrrolo[2,3-b]pyridin-6-yl)-4-(trifluoromethyl)isoindolin-1-one] | 10 to 50
COc1ccc(-c2ccccc2-c2nncn2C)cc1N1Cc2c(cccc2C(F)(F)F)C1=O [Example G-4, 2-(4-Methoxy-2′-(4-methyl-4H-1,2,4-triazol-3-yl)-[1,1′-biphenyl]-3-yl)-4-(trifluoromethyl)isoindolin-1-one] | 10 to 50
Cn1cnnc1-c1cnn(C)c1-c1cc(O)nc(N2Cc3c(cccc3C(F)(F)F)C2=O)c1 [AAO-1, 2-(6-Hydroxy-4-(1-methyl-4-(4-methyl-4H-1,2,4-triazol-3-yl)-1H-pyrazol-5-yl)pyridin-2-yl)-4-(trifluoromethyl)isoindolin-1-one] | 10 to 50
Cn1cnnc1-c1nccn1-c1cccc(N2Cc3c(cccc3C(F)(F)F)C2=O)c1 [AAA-8, 2-[3-[2-(4-Methyl-1,2,4-triazol-3-yl)imidazol-1-yl]phenyl]-4-(trifluoromethyl)-3H-isoindol-1-one] | 10 to 50
CCOc1cc(-c2ccccc2-c2nncn2C)cc(N2Cc3c(cccc3C(F)(F)F)C2=O)c1 [AAR-5, 2-(5-Ethoxy-2′-(4-methyl-4H-1,2,4-triazol-3-yl)-[1,1′-biphenyl]-3-yl)-4-(trifluoromethyl) isoindolin-1-one] | 0.2 to 1
CNC(=O)c1cc(-c2ccccc2-c2nncn2C)cc(N2Cc3c(cccc3C(F)(F)F)C2=O)c1 [Example O-3, N-Methyl-2′-(4-methyl-4H-1,2,4-triazol-3-yl)-5-(1-oxo-4-(trifluoromethyl)isoindolin-2-yl)-[1,1′-biphenyl]-3-carboxamide] | 10 to 50
CCNc1cc(-c2c(-c3nncn3C)cnn2C)cc(N2Cc3c(cc(CN)cc3C(F)(F)F)C2=O)n1 [ACG-3, 6-(Aminomethyl)-2-(6-(ethylamino)-4-(1-methyl-4-(4-methyl-4H-1,2,4-triazol-3-yl)-1H-pyrazol-5-yl)pyridin-2-yl)-4-(trifluoromethyl)isoindolin-1-one] | ≤ 0.2
CCNc1cc(-c2ccccc2-c2nncn2C)cc(N2Cc3c(cc(CO)cc3C(F)(F)F)C2=O)n1 [AD-3, 2-(6-(Ethylamino)-4-(2-(4-methyl-4H-1,2,4-triazol-3-yl)phenyl)pyridin-2-yl)-6-(hydroxymethyl)-4-(trifluoromethyl)isoindolin-1-one] | ≤ 0.2
Cn1ncnc1-c1ccccc1-c1cccc(N2Cc3c(cccc3C(F)(F)F)C2=O)c1 [AAX-2, 2-(2′-(1-Methyl-1H-1,2,4-triazol-5-yl)-[1,1′-biphenyl]-3-yl)-4-(trifluoromethyl)isoindolin-1-one] | 10 to 50
Cn1cnnc1-c1cnn(C)c1-c1cc(CN)nc(N2Cc3c(cccc3C(F)(F)F)C2=O)c1 [ABG-3, 2-(6-(Aminomethyl)-4-(1-methyl-4-(4-methyl-4H-1,2,4-triazol-3-yl)-1H-pyrazol-5-yl)pyridin-2-yl)-4-(trifluoromethyl)isoindolin-1-one] | 10 to 50
CC(C)Nc1cc(-c2c(-c3nncn3C)cnn2C)cc(N2Cc3c(cccc3C(F)(F)F)C2=O)n1 [ABI-1, 2-(6-(Isopropylamino)-4-(1-methyl-4-(4-methyl-4H-1,2,4-triazol-3-yl)-1H-pyrazol-5-yl)pyridin-2-yl)-4-(trifluoromethyl)isoindolin-1-one] | ≤ 0.2
Cn1cnnc1-c1cnccc1-c1cccc(N2Cc3c(cccc3C(F)(F)F)C2=O)c1 [AAY-6, 2-[3-[3-(4-Methyl-1,2,4-triazol-3-yl)-pyridin-4-yl]-phenyl]-4-(trifluoromethyl)-3H-isoindol-1-one] | 1 to 10
Cn1cnnc1-c1ccccc1-c1cc(Cl)nc(N2Cc3c(cccc3C(F)(F)F)C2=O)c1 [AAT-1, 2-(6-Chloro-4-(2-(4-methyl-4H-1,2,4-triazol-3-yl)phenyl)pyridin-2-yl)-4-(trifluoromethyl)isoindolin-1-one] | 0.2 to 1
CCNc1cc(-c2ccccc2-c2nncn2C)cc(N2Cc3c(cc(CN[C@@H]4CCC[C@@H]4O)cc3C(F)(F)F)C2=O)n1 [AQ-1, 2-(6-(Ethylamino)-4-(2-(4-methyl-4H-1,2,4-triazol-3-yl)phenyl)pyridin-2-yl)-6-((((1R,2S)-2-hydroxycyclopentyl)amino)methyl)-4-(trifluoromethyl)isoindolin-1-one] | ≤ 0.2
Cn1cnnc1-c1ccncc1-c1cccc(N2Cc3c(cccc3C(F)(F)F)C2=O)c1 [ABB-5, 2-[3-[4-(4-Methyl-1,2,4-triazol-3-yl)pyridin-3-yl]phenyl]-4-(trifluoromethyl)-3H-isoindol-1-one] | 1 to 10
